# Test results as given in patent publication US20020137929A1, “1 - (3-heterocyclylphenyl) isothiourea, -isourea, -guanidine and -amidine herbicidal agents” (Intellectual Property Department, BASF Aktiengesellschaft, priority 1998, published 2002).
# How the values were obtained:
# [1] = system: ABUTH (Velvetleaf); experiment: Postemergence herbicidal evaluation; assay type: in vivo, Abutilon theophrasti
# In short: (§1)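 Visual 0–9 rating versus control (stand, vigor, malformation, size, chlorosis, overall appearance), taken four to five weeks post-spray. Two-week-old seedlings received roughly 0.0156–0.500 kg/ha active in acetone/water (50/50) with 0.5% TWEEN 20 via nozzle at 40 psi.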
# [2] = system: AMBEL (Ragweed, Common); experiment: Postemergence herbicidal evaluation; assay type: in vivo, Ambrosia artemisifolia
# In short: as §1
# [3] = system: ECHCG (Barnyardgrass); experiment: Postemergence herbicidal evaluation; assay type: in vivo, Echinochloa crus-galli
# In short: as §1
# [4] = system: SETVI (Foxtail, Green); experiment: Postemergence herbicidal evaluation; assay type: in vivo, Setaria viridis
# In short: as §1
# [5] = system: GLXMAW (Soybean, Williams); experiment: Postemergence herbicidal evaluation; assay type: in vivo, Glycine max, (L.) Merr. cv Williams
# In short: as §1
# [6] = system: ORYSAT (Rice, Tebonnet); experiment: Postemergence herbicidal evaluation; assay type: in vivo, Oryza sativa, (L.) Tebonnet
# In short: as §1
# [7] = system: TRZAWR (Wheat, Winter, cv Riband); experiment: Postemergence herbicidal evaluation; assay type: in vivo, Triticum aestivum
# In short: as §1
# [8] = system: ABUTH (Velvetleaf); experiment: Preemergence herbicidal evaluation; assay type: in vivo, Abutilon theophrasti; settings: rated 4-5 weeks after treatment
# In short: (§2)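 Steps: mix seeds into potting soil; plant atop ~1 inch soil; spray compound in aqueous acetone (~0.0156-0.500 kg/ha equivalent); maintain in greenhouse with watering; rate visually 0-9 versus control at 4-5 weeks.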
# [9] = system: CASOB (Sicklepod); experiment: Preemergence herbicidal evaluation; assay type: in vivo, Cassia obtusifolia; settings: rated 4-5 weeks after treatment
# In short: as §2
# [10] = system: SETVI (Foxtail, Green); experiment: Preemergence herbicidal evaluation; assay type: in vivo, Setaria viridis; settings: rated 4-5 weeks after treatment
# In short: as §2
# [11] = system: SAGPY (Arrowhead (Pygmaea)); experiment: Preemergence weed control under flooded paddy conditions; assay type: in vivo, Sagittaria pygmaea; settings: rated 3-4 weeks after treatment
# In short: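 Using flooded silt loam (water 1.5 to 3 cm deep), seeds sown in the top 0.5 cm were exposed preemergence to compound pipetted into the flood at about 0.0313 to 0.500 kg/ha. Effects were scored 0-9 by eye three to four weeks later.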
# [12] = system: CYPIR (Rice Flatsedge); experiment: Postemergence weed control under flooded paddy conditions; assay type: in vivo, Cyperus iria; settings: postemergence weeds, 3-4 weeks after treatment
# In short: (§3)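 Injury ratings (0–9 scale covering stand, vigor, malformation, size, chlorosis and overall appearance versus control) were made three to four weeks after treatment. Test material, about 0.0313 to 0.500 kg/ha a.i. in 50/50 v/v aqueous/acetone, was added to flood water 1.5 to 3 cm deep over 3 to 5 cm weeds and 1.5 to 2.5 leaf rice.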
# [13] = system: SAGPY (Arrowhead (Pygmaea)); experiment: as above; assay type: in vivo, Sagittaria pygmaea; settings: postemergence weeds, 3-4 weeks after treatment
# In short: as §3
compound,measurement,setting,value
"CCOC(=O)CN1CC(=O)N(CC(=O)OCC)C1=Nc1cc(-n2c(=O)cc(C(F)(F)F)n(C)c2=O)c(F)cc1Cl [Compound 34, 2-{{2-Chloro-5-[3,6-dihydro-3-methyl-2,6-dioxo-4-(trifluoromethyl)-1(2H)-pyrimidinyl]-4-fluoro-phenyl}imino}-4-oxo-1,3-imidazolidinediacetic acid, diethyl ester]",Postemergence herbicidal rating ABUTH,[1]; Rate 0.0158 kg/ha,9.0
same,Postemergence herbicidal rating ABUTH,[1]; Rate 0.0315 kg/ha,9.0
same,Postemergence herbicidal rating ABUTH,[1]; Rate 0.0630 kg/ha,9.0
same,Postemergence herbicidal rating AMBEL,[2]; Rate 0.0158 kg/ha,9.0
same,Postemergence herbicidal rating AMBEL,[2]; Rate 0.0315 kg/ha,9.0
same,Postemergence herbicidal rating AMBEL,[2]; Rate 0.0630 kg/ha,9.0
same,Postemergence herbicidal rating ECHCG,[3]; Rate 0.0158 kg/ha,0.0
same,Postemergence herbicidal rating ECHCG,[3]; Rate 0.0315 kg/ha,0.0
same,Postemergence herbicidal rating ECHCG,[3]; Rate 0.0630 kg/ha,1.0
same,Postemergence herbicidal rating SETVI,[4]; Rate 0.0158 kg/ha,0.0
same,Postemergence herbicidal rating SETVI,[4]; Rate 0.0315 kg/ha,4.0
same,Postemergence herbicidal rating SETVI,[4]; Rate 0.0630 kg/ha,9.0
same,Postemergence herbicidal rating GLXMAW,[5]; Rate 0.0158 kg/ha,7.0
same,Postemergence herbicidal rating GLXMAW,[5]; Rate 0.0315 kg/ha,7.0
same,Postemergence herbicidal rating GLXMAW,[5]; Rate 0.0630 kg/ha,7.0
same,Postemergence herbicidal rating ORYSAT,[6]; Rate 0.0158 kg/ha,1.0
same,Postemergence herbicidal rating ORYSAT,[6]; Rate 0.0315 kg/ha,2.0
same,Postemergence herbicidal rating ORYSAT,[6]; Rate 0.0630 kg/ha,3.5
same,Postemergence herbicidal rating TRZAWR,[7]; Rate 0.0158 kg/ha,4.0
same,Postemergence herbicidal rating TRZAWR,[7]; Rate 0.0315 kg/ha,4.0
same,Postemergence herbicidal rating TRZAWR,[7]; Rate 0.0630 kg/ha,5.0
same,Preemergence herbicidal rating ABUTH,[8]; rate 0.0313 kg/ha,9.0
same,Preemergence herbicidal rating ABUTH,[8]; rate 0.0625 kg/ha,9.0
same,Preemergence herbicidal rating ABUTH,[8]; rate 0.1250 kg/ha,9.0
same,Preemergence herbicidal rating ABUTH,[8]; rate 0.2500 kg/ha,9.0
same,Preemergence herbicidal rating CASOB,[9]; rate 0.0313 kg/ha,0.0
same,Preemergence herbicidal rating CASOB,[9]; rate 0.0625 kg/ha,0.0
same,Preemergence herbicidal rating CASOB,[9]; rate 0.1250 kg/ha,0.0
same,Preemergence herbicidal rating CASOB,[9]; rate 0.2500 kg/ha,0.0
same,Preemergence herbicidal rating SETVI,[10]; rate 0.0313 kg/ha,3.0
same,Preemergence herbicidal rating SETVI,[10]; rate 0.0625 kg/ha,9.0
same,Preemergence herbicidal rating SETVI,[10]; rate 0.1250 kg/ha,9.0
same,Preemergence herbicidal rating SETVI,[10]; rate 0.2500 kg/ha,9.0
same,Herbicidal rating SAGPY,[11]; 0.0313 kg/ha,0.0
same,Herbicidal rating SAGPY,[11]; 0.0625 kg/ha,0.0
same,Herbicidal rating SAGPY,[11]; 0.1250 kg/ha,0.0
same,Herbicidal rating SAGPY,[11]; 0.2500 kg/ha,0.0
same,Herbicidal rating CYPIR,[12]; rate 0.0313 kg/ha,0.0
same,Herbicidal rating CYPIR,[12]; rate 0.0625 kg/ha,0.0
same,Herbicidal rating CYPIR,[12]; rate 0.1250 kg/ha,0.0
same,Herbicidal rating CYPIR,[12]; rate 0.2500 kg/ha,0.0
same,Herbicidal rating SAGPY,[13]; rate 0.0313 kg/ha,0.0
same,Herbicidal rating SAGPY,[13]; rate 0.0625 kg/ha,0.0
same,Herbicidal rating SAGPY,[13]; rate 0.1250 kg/ha,0.0
same,Herbicidal rating SAGPY,[13]; rate 0.2500 kg/ha,0.0
"CCOC(=O)CN1C(=O)C(Cc2ccccc2OC)SC1=Nc1cc(-n2c(=O)cc(C(F)(F)F)n(C)c2=O)c(F)cc1Cl (stereo not drawn) [Compound 37, Ethyl 2-{{2-chloro-5-[3,6-dihydro-3-methyl-2,6-dioxo-4-(trifluoromethyl)-1(2H)-pyrimidinyl]-4-fluorophenyl}imino}-5-(o-methoxybenzyl)-4-oxo-3-thiazolidineacetate]",Postemergence herbicidal rating ABUTH,[1]; Rate 0.0158 kg/ha,9.0
same,Postemergence herbicidal rating ABUTH,[1]; Rate 0.0315 kg/ha,9.0
same,Postemergence herbicidal rating ABUTH,[1]; Rate 0.0630 kg/ha,9.0
same,Postemergence herbicidal rating AMBEL,[2]; Rate 0.0158 kg/ha,3.0
same,Postemergence herbicidal rating AMBEL,[2]; Rate 0.0315 kg/ha,9.0
same,Postemergence herbicidal rating AMBEL,[2]; Rate 0.0630 kg/ha,9.0
same,Postemergence herbicidal rating ECHCG,[3]; Rate 0.0158 kg/ha,0.0
same,Postemergence herbicidal rating ECHCG,[3]; Rate 0.0315 kg/ha,0.0
same,Postemergence herbicidal rating ECHCG,[3]; Rate 0.0630 kg/ha,0.0
same,Postemergence herbicidal rating SETVI,[4]; Rate 0.0158 kg/ha,0.0
same,Postemergence herbicidal rating SETVI,[4]; Rate 0.0315 kg/ha,0.0
same,Postemergence herbicidal rating SETVI,[4]; Rate 0.0630 kg/ha,0.0
same,Postemergence herbicidal rating GLXMAW,[5]; Rate 0.0158 kg/ha,4.5
same,Postemergence herbicidal rating GLXMAW,[5]; Rate 0.0315 kg/ha,5.0
same,Postemergence herbicidal rating GLXMAW,[5]; Rate 0.0630 kg/ha,5.0
same,Postemergence herbicidal rating ORYSAT,[6]; Rate 0.0158 kg/ha,0.5
same,Postemergence herbicidal rating ORYSAT,[6]; Rate 0.0315 kg/ha,1.0
same,Postemergence herbicidal rating ORYSAT,[6]; Rate 0.0630 kg/ha,1.5
same,Postemergence herbicidal rating TRZAWR,[7]; Rate 0.0158 kg/ha,2.0
same,Postemergence herbicidal rating TRZAWR,[7]; Rate 0.0315 kg/ha,2.0
same,Postemergence herbicidal rating TRZAWR,[7]; Rate 0.0630 kg/ha,2.0
same,Preemergence herbicidal rating ABUTH,[8]; rate 0.1250 kg/ha,0.0
same,Preemergence herbicidal rating ABUTH,[8]; rate 0.2500 kg/ha,3.0
same,Preemergence herbicidal rating CASOB,[9]; rate 0.1250 kg/ha,0.0
same,Preemergence herbicidal rating CASOB,[9]; rate 0.2500 kg/ha,0.0
same,Preemergence herbicidal rating SETVI,[10]; rate 0.1250 kg/ha,0.0
same,Preemergence herbicidal rating SETVI,[10]; rate 0.2500 kg/ha,0.0
same,Herbicidal rating SAGPY,[11]; 0.0313 kg/ha,0.0
same,Herbicidal rating SAGPY,[11]; 0.0625 kg/ha,0.0
same,Herbicidal rating SAGPY,[11]; 0.1250 kg/ha,0.0
same,Herbicidal rating SAGPY,[11]; 0.2500 kg/ha,3.0
same,Herbicidal rating CYPIR,[12]; rate 0.0313 kg/ha,0.0
same,Herbicidal rating CYPIR,[12]; rate 0.0625 kg/ha,0.0
same,Herbicidal rating CYPIR,[12]; rate 0.1250 kg/ha,0.0
same,Herbicidal rating CYPIR,[12]; rate 0.2500 kg/ha,0.0
same,Herbicidal rating SAGPY,[13]; rate 0.0313 kg/ha,0.0
same,Herbicidal rating SAGPY,[13]; rate 0.0625 kg/ha,0.0
same,Herbicidal rating SAGPY,[13]; rate 0.1250 kg/ha,0.0
same,Herbicidal rating SAGPY,[13]; rate 0.2500 kg/ha,3.0
